Laboratory results published in US20240148821A1, “PHARMACEUTICAL USE OF CYCLIC PEPTIDE COMPOUND” (CHUGAI SEIYAKU KABUSHIKI KAISHA, priority 2021, published 2024).
Numbered stars: 1 amine (or outer) side, 2 acyl side, 3 side chain; on linkers, the order of the positions; unused ones are H or OH. Bridge positions count the residues as written; N and C are the ends. Square brackets hold non-standard residues; d marks the D form. Peptide text beside a SMILES is read from it. * marks the point of attachment. hPhe(3,5-F2-4-CF3) = N[C@@H](CCc1cc(F)c(C(F)(F)F)c(F)c1)C(=O)O; hPhe(3-Cl-4-CF3) = N[C@@H](CCc1ccc(C(F)(F)F)c(Cl)c1)C(=O)O; NEtPhe(4-CF3) = CCN[C@@H](Cc1ccc(C(F)(F)F)cc1)C(=O)O; hPhe(4-CF3) = N[C@@H](CCc1ccc(C(F)(F)F)cc1)C(=O)O; 3Oxa8azabicyclo(3.2.1)octane = C1CC2COCC1N2*; NMePhe(4-Cl) = CN[C@@H](Cc1ccc(Cl)cc1)C(=O)O; NMePhe(4-Me) = CN[C@@H](Cc1ccc(C)cc1)C(=O)O; NMedβ3hAla = C[C@H](CC(=O)[*:2])N(C)[*:1]; NMeGly(cPent) = CN[C@H](C(=O)O)C1CCCC1; Pro(4,4-F2) = O=C(O)[C@@H]1CC(F)(F)CN1; dβ3hPip = O=C(C[C@H]1CCCCN1[*:1])[*:2]; NMeCha = CN[C@@H](CC1CCCCC1)C(=O)O; NMeAhp(2) = CCCCC[C@H](NC)C(=O)O; NMeChg = CN[C@H](C(=O)O)C1CCCCC1; NMeF = CN[C@@H](Cc1ccccc1)C(=O)O; NMeI = CC[C@H](C)[C@H](NC)C(=O)O; NMeD = CN[C@@H](CC(=O)O)C(=O)O; NMeL = CN[C@@H](CC(C)C)C(=O)O; NMeV = CN[C@H](C(=O)O)C(C)C; d(β3hA) = C[C@@H](N)CC(=O)O; NMeS = CN[C@@H](CO)C(=O)O; NMeA = CN[C@@H](C)C(=O)O; Piperidide = C1CCN(*)CC1; Pyrrolidide = C1CCN(*)C1; Ac5c = NC1(C(=O)O)CCCC1; Aze = O=C(O)[C@@H]1CCN1; Ac4c = NC1(C(=O)O)CCC1; NBuGly = CCCCNCC(=O)O; Aib = CC(C)(N)C(=O)O; Sar = CNCC(=O)O; Propyl = CCC*

What follows are compounds tested against protein-protein interaction between Kras and SOS1 (biotin-tagged human Kras loaded with GDP, His-tagged human SOS1) (Homo sapiens (Human), UniProt P01116, G12D) (assay: Protein-protein interaction inhibition between Kras and SOS1 (KrasG12D-SOS PPI) using AlphaScreen). Details: AlphaScreen; biotin-tagged human Kras loaded with GDP, His-tagged human SOS1; read-out: KRAS G12D-SOS PPI IC50.
Type: biochemical

Compared with `CCCCC[C@H]1C(=O)N[C@@H]([C@@H](C)CC)C(=O)N[C@@H](C)C(=O)N2CC[C@H]2C(=O)N(C)[C@@H](COCCC)C(=O)N(C)CC(=O)N[C@@H](CCc2ccc(C(F)(F)F)c(Cl)c2)C(=O)N2CCC[C@H]2C(=O)NC2(CCCC2)C(=O)N(C)[C@@H](C2CCCC2)C(=O)N(C)[C@H](C(=O)N2C3CCC2COC3)CC(=O)N1C` [Compound 163] ([NMeAhp(2)]IA[Aze][NMeS](Propyl)[Sar][hPhe(3-Cl-4-CF3)]P[Ac5c][NMeGly(cPent)][NMeD]-{3Oxa8azabicyclo(3.2.1)octane}; lactam N-11), `CC[C@H](C)[C@@H]1NC(=O)[C@H](CC(C)C)N(C)C(=O)C[C@@H](C(=O)N2CCCC2)N(C)C(=O)[C@H](C2CCCC2)N(C)C(=O)C2(CCCC2)NC(=O)[C@@H]2CCCN2C(=O)[C@H](CCc2ccc(C(F)(F)F)c(Cl)c2)NC(=O)CN(C)C(=O)[C@H](C2CCCC2)N(C)C(=O)[C@@H]2CCN2C(=O)[C@H](C)N(C)C1=O` [Compound 201] ([NMeL]I[NMeA][Aze][NMeGly(cPent)][Sar][hPhe(3-Cl-4-CF3)]P[Ac5c][NMeGly(cPent)][NMeD]-Pyrrolidide; lactam N-11) is 11-fold lower in IC50: 6.1 nM for the first, 0.58 nM for the second. The second is the more potent here.

`CC[C@H](C)[C@@H]1NC(=O)[C@H](C)N(C)C(=O)C[C@@H](C)N(C)C(=O)[C@H](CC(C)C)NC(=O)C(C)(C)NC(=O)[C@H](CC(C)C)NC(=O)[C@H](CCc2ccc(C(F)(F)F)cc2)NC(=O)CN(C)C(=O)[C@H](Cc2ccc(Cl)cc2)N(C)C(=O)CN(C)C(=O)CN(C)C1=O` [Compound 170] (cyclo([Aib]L[NMedβ3hAla][NMeA]I[Sar][Sar][NMePhe(4-Cl)][Sar][hPhe(4-CF3)]L)) and `CC[C@H](C)[C@@H]1NC(=O)[C@H](C)N(C)C(=O)C[C@@H](C)N(C)C(=O)[C@H](CC(C)C)NC(=O)[C@H](Cc2ccccc2)N(C)C(=O)[C@H](CC(C)C)NC(=O)[C@H](CCc2ccc(C(F)(F)F)cc2)NC(=O)CN(C)C(=O)[C@H](Cc2ccc(Cl)cc2)N(C)C(=O)CN(C)C(=O)CN(C)C1=O` [Compound 214] (cyclo(I[Sar][Sar][NMePhe(4-Cl)][Sar][hPhe(4-CF3)]L[NMeF]L[NMedβ3hAla][NMeA])) are within 1.5-fold of each other in IC50: 350 nM for the first, 280 nM for the second.

Compared with `CC[C@H](C)[C@@H]1NC(=O)[C@H](CC(C)C)N(C)C(=O)C[C@@H](C)NC(=O)[C@H](C(C)C)N(C)C(=O)C2(CCCC2)NC(=O)[C@@H]2CCCN2C(=O)[C@H](CCc2ccc(C(F)(F)F)c(Cl)c2)NC(=O)CN(C)C(=O)[C@H](CC2CCCCC2)N(C)C(=O)[C@@H]2CCN2C(=O)[C@@H]2CCN2C1=O` [Compound 181] (cyclo([Ac5c][NMeV][d(β3hA)][NMeL]I[Aze][Aze][NMeCha][Sar][hPhe(3-Cl-4-CF3)]P)), `CC[C@H](C)[C@@H]1NC(=O)[C@H](CC(C)C)N(C)C(=O)C[C@@H](C)NC(=O)[C@H](C(C)C)N(C)C(=O)C2(CCCC2)NC(=O)[C@@H]2CCCN2C(=O)[C@H](CCc2ccc(C(F)(F)F)c(Cl)c2)NC(=O)CN(C)C(=O)[C@H](Cc2ccc(Cl)cc2)N(C)C(=O)[C@@H]2CCN2C(=O)CN(C)C1=O` [Compound 207] (cyclo([Ac5c][NMeV][d(β3hA)][NMeL]I[Sar][Aze][NMePhe(4-Cl)][Sar][hPhe(3-Cl-4-CF3)]P)) is 43-fold lower in IC50: 130 nM for the first, 3 nM for the second. The second is the more potent here.

Compared with `CC[C@H](C)[C@@H]1NC(=O)[C@H](CC(C)C)N(C)C(=O)C[C@@H](C(=O)N2CCCCC2)N(C)C(=O)[C@H](C2CCCC2)N(C)C(=O)C2(CCCC2)NC(=O)[C@@H]2CCCN2C(=O)[C@H](CCc2ccc(C(F)(F)F)c(Cl)c2)NC(=O)CN(C)C(=O)[C@H](C2CCCC2)N(C)C(=O)[C@@H]2CCN2C(=O)[C@H](C)N(C)C1=O` [Compound 182] ([NMeL]I[NMeA][Aze][NMeGly(cPent)][Sar][hPhe(3-Cl-4-CF3)]P[Ac5c][NMeGly(cPent)][NMeD]-Piperidide; lactam N-11), `CCCCN1CC(=O)N(C)[C@@H]([C@@H](C)CC)C(=O)N(C)[C@H](C(=O)N(C)C)CC(=O)N(C)[C@@H](CC(C)C)C(=O)N[C@@H]([C@@H](C)CC)C(=O)N(C)[C@@H](C)C(=O)N2CC[C@H]2C(=O)N(C)[C@@H](Cc2ccc(C)cc2)C(=O)N(C)CC(=O)N[C@@H](CCc2ccc(C(F)(F)F)c(Cl)c2)C(=O)N2CCC[C@H]2C1=O` [Compound 215] ([NMeL]I[NMeA][Aze][NMePhe(4-Me)][Sar][hPhe(3-Cl-4-CF3)]P[NBuGly][NMeI][NMeD]-NMe2; lactam N-11) is 30-fold higher in IC50: 0.98 nM for the first, 29 nM for the second. The first is the more potent here.

Compared with `CC[C@H](C)[C@@H]1NC(=O)[C@H](C(C)C)N(C)C(=O)C[C@H]2CCCCN2C(=O)[C@H](CC(C)C)N(C)C(=O)C2(CCCC2)NC(=O)[C@H](CC(C)C)N(C)C(=O)[C@H](CCc2ccc(C(F)(F)F)cc2)NC(=O)CN(C)C(=O)[C@H](Cc2ccc(Cl)cc2)N(C)C(=O)CN(C)C(=O)CN(C)C1=O` [Compound 189] (cyclo([Ac5c][NMeL][dβ3hPip][NMeV]I[Sar][Sar][NMePhe(4-Cl)][Sar][hPhe(4-CF3)][NMeL])), `CC[C@H](C)[C@@H]1NC(=O)[C@H](CC(C)C)N(C)C(=O)C[C@@H](C)N(C)C(=O)[C@H](C2CCCCC2)N(C)C(=O)C2(CCC2)NC(=O)[C@@H]2CC(F)(F)CN2C(=O)[C@H](CCc2cc(F)c(C(F)(F)F)c(F)c2)NC(=O)CN(C)C(=O)[C@H](Cc2ccc(C(F)(F)F)cc2)N(CC)C(=O)[C@@H]2CCN2C(=O)[C@H](C)NC1=O` [Compound 203] (cyclo(A[Aze][NEtPhe(4-CF3)][Sar][hPhe(3,5-F2-4-CF3)][Pro(4,4-F2)][Ac4c][NMeChg][NMedβ3hAla][NMeL]I)) is 3.5-fold lower in IC50: 110 nM for the first, 31 nM for the second.
